Results: patent US20100159496A1, “EVALUATION METHOD FOR PHOTOSYNTHESIS SAMPLE, EVALUATION SYSTEM FOR PHOTOSYNTHESIS SAMPLE, AND EVALUATION PROGRAM FOR PHOTOSYNTHESIS SAMPLE” (HAMAMATSU PHOTONICS K.K., priority 2006, published 2010)

Key:
[1] = system: Pseudokircheneriella subcapitata; experiment: Delayed luminescence of P. subcapitata exposed to simazine, fitted by Formula (1); type: cell-based; parameters: key to Computed value E: E computed by Formula (2) from fitted coefficients ai, bi, ci; settings: for luminescence amount of delayed luminescence, exposed vs not exposed: 15 minutes after exposure (FIG. 14); for Fitting formula value a1 / Fitting formula value a2 / Fitting formula value a3 / Fitting formula value b1 / Fitting formula value b2 / Fitting formula value b3 / Fitting formula value c1 / Fitting formula value c2 / Fitting formula value c3: 15 minutes after exposure; for Computed value E: Formula (2) from coefficients of Table 2; for Area value (quadrature by parts): third function f3(t), t=0 to 90, Δt 0.1
Method: In the present example, the measurement of delayed luminescence was carried out as follows. 2.5 mL of a P. subcapitata cell suspension, adjusted to have an absorbance at 660 nm of 0.2 in a general, 10×10 mm spectrometric cell, was exposed to simazine of any of various concentrations and left to stand for 15 minutes under a white fluorescent lamp of a light amount of 50 μmol·m−2·s−1. Thereafter, inside the measuring device 10, a red light (660 nm) of approximately 300 μmol·m−2·s−1 was illuminated for 10 seconds from the light source 18 as the excitation light for making delayed luminescence be emitted and then the delayed luminescence emitted after extinguishing of the excitation light was recorded for 50 seconds at 0.1 second intervals.
In the present example, the above-described Formula (1) was used for fitting. As examples for description of the fitting results, the measurement result for the “Not exposed” case is shown in FIG. 15A and a graph of the results of fitting to the measurement data are shown in FIG. 15B. In FIG. 15B, f1(t), f2(t), and f3(t) are respectively the first function, the second function, and the third function in Formula (1). From FIG. 15, it can be understood that the delayed luminescence measurement data can be fitted by a plurality of hill-shaped function.
By the fitting, the function coefficients, ai, bi, and ci (i=1, 2, 3) are determined.
As another example of the evaluating step, a case of evaluating by an evaluation value computed based on a computation formula shall be described. As the evaluation value, an evaluation value E is computed from the determined coefficient values ai, bi, and ci (i=1, 2, 3) and based on Formula (2) described above. Here, the constants mj (j=1 to 9) are set, for example, so that m1=1/a3, m2=1, m3=1, m4=1/a2, m5=1/b2, m6=1/c2, m7=1, m8=1/a1, m9=1/c1. As the constants mj, those that are appropriate according to the measurement conditions and algae species can be set. If instead of using all of the coefficient values, only a portion is to be used as described above, a reciprocal of a coefficient value, such as 1/a3, is set to the corresponding mj (j=1 to 9) for each coefficient value to be ignored.
As another example of the evaluating step, a case of evaluating by an area value computed based on the coefficient values of a function shall be described. As mentioned above, the area value is the value of the area of a region surrounded by the curve indicating the function value in the function graph and the time axis line positioned below the curve indicating the function value. The area value of a function is deeply related to the luminescence amount of the photon component expressed by the function. In the present example, based on the coefficient values obtained from the results of exposing simazine to P. subcapitata shown in Table 2, area values were determined for the third function f3(t) in Formula (1) in a range of t=0 to 90 by quadrature by parts with at interval Δt being set equal to 0.1.

[2] = system: Pseudokircheneriella subcapitata; experiment: Algae growth inhibition, area under growth curve, P. subcapitata; type: cell-based; settings: 72 hours after exposure, various simazine concentrations (FIG. 13)
Method: In the present embodiment, the area under the growth curve is the area under the growth curve obtained by culturing 6 mL of an P. subcapitata cell suspension, adjusted to have an absorbance at 750 nm of 0.01, under a white fluorescent lamp (50 μmol·m−2·s−1) for 72 hours after chemical substance exposure and measuring, every 24 hours, the cell density as the absorbance at 750 nm.

[3] = simazine exposure concentration 5 μg/L
[4] = simazine exposure concentration 25 μg/L
[5] = simazine exposure concentration 50 μg/L
[6] = simazine exposure concentration 100 μg/L

With `CCNc1nc(Cl)nc(NCC)n1` [Simazine, simazine] the “variation of evaluation value c3 with simazine exposure concentration” value ([1]; P. subcapitata (FIG. 16)) was “decreases in accordance with the simazine exposure concentration”, the “variation of computed value E with simazine exposure concentration” value ([1]; P. subcapitata (FIG. 17)) was “decreases in accordance with the simazine exposure concentration” and the “variation of area value with simazine exposure concentration” value ([1]; P. subcapitata (FIG. 18)) was “decreases in accordance with the simazine exposure concentration”. For the same compound, the “luminescence amount of delayed luminescence, exposed vs not exposed” value ([1]; early time period (near 0 seconds) of time after excitation) was “increases”, the “luminescence amount of delayed luminescence, exposed vs not exposed” value ([1]; later time period (5 seconds onward) after excitation) was “decreases” and the “Fitting formula value a1” value [1, 3] was 0.05. For the same compound, the “Fitting formula value a2” value [1, 3] was 0.0037, the “Fitting formula value a3” value [1, 3] was 0.0005 and the “Fitting formula value b1” value [1, 3] was −0.5. For the same compound, the “Fitting formula value b2” value [1, 3] was −0.5, the “Fitting formula value b3” value [1, 3] was 6 and the “Fitting formula value c1” value [1, 3] was 5.2. The “Fitting formula value c2” value [1, 3] was 4.15, the “Fitting formula value c3” value [1, 3] was 3 and the “Computed value E” value [1, 3] was 360. For the same compound, the “Area value (quadrature by parts)” value [1, 3] was 24112.1, the “Fitting formula value a1” value [1, 4] was 0.05 and the “Fitting formula value a2” value [1, 4] was 0.0035. For the same compound, the “Fitting formula value a3” value [1, 4] was 0.0004, the “Fitting formula value b1” value [1, 4] was −0.5 and the “Fitting formula value b2” value [1, 4] was −0.5. For the same compound, the “Fitting formula value b3” value [1, 4] was 5, the “Fitting formula value c1” value [1, 4] was 5.2 and the “Fitting formula value c2” value [1, 4] was 4.1. The “Fitting formula value c3” value [1, 4] was 2.9, the “Computed value E” value [1, 4] was 290 and the “Area value (quadrature by parts)” value [1, 4] was 19665.7. For the same compound, the “Fitting formula value a1” value [1, 5] was 0.08, the “Fitting formula value a2” value [1, 5] was 0.0044 and the “Fitting formula value a3” value [1, 5] was 0.0005. The “Fitting formula value b1” value [1, 5] was −0.5, the “Fitting formula value b2” value [1, 5] was −0.5 and the “Fitting formula value b3” value [1, 5] was 3. For the same compound, the “Fitting formula value c1” value [1, 5] was 5.4, the “Fitting formula value c2” value [1, 5] was 4.1 and the “Fitting formula value c3” value [1, 5] was 2.9. The “Computed value E” value [1, 5] was 108.75, the “Area value (quadrature by parts)” value [1, 5] was 16520.1 and the “Fitting formula value a1” value [1, 6] was 0.1. The “Fitting formula value a2” value [1, 6] was 0.005, the “Fitting formula value a3” value [1, 6] was 0.005 and the “Fitting formula value b1” value [1, 6] was −0.5. For the same compound, the “Fitting formula value b2” value [1, 6] was −0.5, the “Fitting formula value b3” value [1, 6] was 3 and the “Fitting formula value c1” value [1, 6] was 5.6. For the same compound, the “Fitting formula value c2” value [1, 6] was 4.1, the “Fitting formula value c3” value [1, 6] was 2.7 and the “Computed value E” value [1, 6] was 81. For the same compound, the “Area value (quadrature by parts)” value [1, 6] was 4435.7 and the “cell growth (area under the growth curve)” value [2] was “inhibited according to the exposure concentration of simazine”.
